Source: patent publication US9758544B2 (priority 2014, dated 2017)

Tested on: subgenomic HCV replicon in Huh-7 cells
Experiment: microbe, parasite or virus in culture
Assay type: cell-based
Conditions: Hepatitis C virus, Huh-7, 72 h, read-out: EC50 (50% inhibitory concentration) in HCV replicon cells

[2H]C([2H])(OP(=O)(N[C@H](C)C(=O)OC(C)C)Oc1ccccc1)[C@@]1(F)O[C@@H](n2cnc3c(OCC)nc(N)nc32)[C@](C)(F)[C@@H]1O (stereo partly shown) [Compound 2]
EC50: < 1000 nM
